Experimental data published in patent US11149035B2, “Chemical compounds as H—PGDS inhibitors” (GlaxoSmithKline Intellectual Property Development Limited, priority 2017, dated 2021).

Columns and labels:
[1] = tested on: limb muscle injury in male C57Bl/6N mice; test: In vivo assay for functional response to muscle injury (eccentric contraction-induced muscle fatigue); set-up: species or system mouse; conditions: FIG. 1
From the text: Under anesthesia, the right hind limb of a mouse is restrained at the knee and the foot attached to a motorized footplate/force transducer. Needle electrodes are inserted into the upper limb, either side of the sciatic nerve and a current sufficient to elicit a maximal muscle contraction is applied. Muscle tension is produced by moving the footplate to lengthen the plantarflexor muscles while the limb is under maximal stimulation. This is repeated 60 times to fatigue the muscles of the lower limb. Anesthesia, limb immobilization and limb stimulation are then repeated at regular intervals to measure maximal isometric force in the recovering limb. 7 to 9 animals are tested for each test condition.

[2] = tested on: prostaglandin D2 generation following 48/80-induced mast cell degranulation; test: In vivo mast cell activation (compound 48/80-induced degranulation, PGD2 in peritoneal lavage by LC/MS/MS); set-up: species or system mouse; conditions: normal C57Bl6/N mice; oral 0.1-10 mg/kg ~1 hour prior to 48/80 i.p.; peritoneal lavage 7 minutes afterwards; FIG. 2
Description: Mice were randomized by body weight into 8 groups (n=8): Vehicle (0.5% HPML with 0.1% Tween80)+phosphate buffered saline (PBS), vehicle+compound 48/80 (0.75 mg/ml) and compound 48/80+Example 21 at various doses ranging from 0.1 mg/kg to 10 mg/kg.
C57BL mice were dosed orally with vehicle, or Example 21 at 0.1, 0.3, 1, 3, & 10 mg/kg. One hour later, blood samples were withdrawn via tail snip for measurement of drug levels, and mice were then terminally anesthetized with 2% isoflurane and given an intraperitoneal injection of 0.2 mL PBS or compound 48/80 solution (0.75 mg/mL, Sigma), followed by gentle massage of the abdomen. Mice were kept under anesthesia for 7 minutes prior to euthanasia. […]
Samples were thawed at room temperature and vortex-mixed. […] The plate was vortex-mixed for 30 seconds at 1000 rpm and analyzed by LC/MS/MS.
The analytical system consisted of a CTC HTS PAL autoinjector (Leap, Carrboro, N.C.), an Agilent 1290 Infinity binary pump and thermostated column compartment (Agilent Technologies, Santa Clara, Calif.) and an AB Sciex QTRAP 5500 mass spectrometer (AB Sciex, Framingham, Mass.). […] The analytes were detected by multiple reaction monitoring (MRM) in negative mode using Turbolon spray with the transitions of m/z 351/271 amu for PGD2/PGE2 and m/z 360/280 amu for PGD2-d9/PGE2-d9. […]

## CC(C)(O)[C@H]1CC[C@H](NC(=O)c2cnc3nc(C4CC4)ccc3c2)CC1 [Example 21, 7-Cyclopropyl-N-((trans)-4-(2-hydroxypropan-2-yl)cyclohexyl)-1,8-naphthyridine-3-carboxamide]
[1]; PO 3 and 10 mg/kg QD beginning 10 min prior to eccentric contraction challenge
  kinetics of recovery of maximal isometric force after injury: acceleration in the kinetics of recovery
[1]; PO 3 and 10 mg/kg QD, 24 hours
  initial magnitude of the injury (isometric limb force 24 hours following protocol initiation): reduced the initial magnitude of the injury
[2]
  48/80-induced PGD2 generation in lavage fluid: prevents 48/80-induced PGD2 generation
